Measurements as given in patent US20090117054A1, “[…] FOR THE TREATMENT OF PAIN” (University of Kentucky Research Foundation, priority 2005, published 2009).
Read-outs that look alike come from different tables or passages of the source.

What was measured:
[1] = Pharmacokinetics of oxycodone in rabbits after intravenous and sublingual spray administration
[2] = cited from earlier work; for time to reach maximum plasma concentration: healthy volunteers
[3] = male, New Zealand albino, rabbit, plasma, iv, 100 ug

Compound | Tmax ([1]; male, New Zealand albino, rabbit, plasma, 100 μg) [min] | bioavailability ([1]; male, New Zealand albino, rabbit, plasma, 100 μg, pH 4) [%] | bioavailability ([1]; male, New Zealand albino, rabbit, plasma, 100 μg, pH 9) [%] | AUC(0-inf) [1, 3] [ng·h/mL] | Cmax [1, 3] [ng/mL] | Tmax [1, 3] [min] | half-life [1, 3] [min] | terminal half-life after intravenous administration compared with sublingual administration ([1]; rabbits) | time to reach maximum plasma concentration ([2]; immediate release oral tablets) [h] | time to reach maximum plasma concentration ([2]; intramuscular) [h] | time to reach maximum plasma concentration ([2]; intranasal) [h] | bioavailability ([2]; oral, nasal and rectal, adults, compared with parenteral administration) | bioavailability ([2]; buccal and intranasal administration)
COc1ccc2c3c1O[C@H]1C(=O)CC[C@@]4(O)[C@@H](C2)N(C)CC[C@]314 [oxycodone, 4,5-epoxy-14-hydroxy-3-methoxy-1 7-methyl-5a-morphinan-6-one] | 20 | 45.4 ± 20.1 | 70.1 ± 17.9 | 213 | 185 | 0 | 67.8 | close to the terminal half-life after sublingual administration | 1.3 | 1.0 | 0.42 | 40-60% | 
COc1ccc2c3c1O[C@H]1C(=O)CC[C@@]4(O)[C@@H](C2)N(C)CC[C@]314.Cl [oxycodone hydrochloride] |  |  |  |  |  |  |  |  |  |  |  |  | around 55%
